Reference: patent publication US20240116985A1, “STAPLED PEPTIDES AND METHODS THEREOF” (priority 2020, published 2024)
Converted amounts (≈) assume the structure as drawn. Read-outs that look alike come from different tables or passages of the source.

Legend:
Solubility in PBS = format: physicochemical
Procedure, shortened: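 HPLC quantitation of peptide remaining in the PBS supernatant after ultracentrifugation, referenced to a 50 μM solution in DMSO.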

[1] = molecular target: T1, full-length beta-Catenin (Uniprot ID P35222) (Homo sapiens, UniProt P35222); assay: Fluorescence polarization IC50 (beta-catenin / 5FAM-TCF4 10-53 competition); format: binding
T1 construct: 10 nM full-length beta-Catenin (Uniprot ID P35222)
T1 sequence (P35222 1-781): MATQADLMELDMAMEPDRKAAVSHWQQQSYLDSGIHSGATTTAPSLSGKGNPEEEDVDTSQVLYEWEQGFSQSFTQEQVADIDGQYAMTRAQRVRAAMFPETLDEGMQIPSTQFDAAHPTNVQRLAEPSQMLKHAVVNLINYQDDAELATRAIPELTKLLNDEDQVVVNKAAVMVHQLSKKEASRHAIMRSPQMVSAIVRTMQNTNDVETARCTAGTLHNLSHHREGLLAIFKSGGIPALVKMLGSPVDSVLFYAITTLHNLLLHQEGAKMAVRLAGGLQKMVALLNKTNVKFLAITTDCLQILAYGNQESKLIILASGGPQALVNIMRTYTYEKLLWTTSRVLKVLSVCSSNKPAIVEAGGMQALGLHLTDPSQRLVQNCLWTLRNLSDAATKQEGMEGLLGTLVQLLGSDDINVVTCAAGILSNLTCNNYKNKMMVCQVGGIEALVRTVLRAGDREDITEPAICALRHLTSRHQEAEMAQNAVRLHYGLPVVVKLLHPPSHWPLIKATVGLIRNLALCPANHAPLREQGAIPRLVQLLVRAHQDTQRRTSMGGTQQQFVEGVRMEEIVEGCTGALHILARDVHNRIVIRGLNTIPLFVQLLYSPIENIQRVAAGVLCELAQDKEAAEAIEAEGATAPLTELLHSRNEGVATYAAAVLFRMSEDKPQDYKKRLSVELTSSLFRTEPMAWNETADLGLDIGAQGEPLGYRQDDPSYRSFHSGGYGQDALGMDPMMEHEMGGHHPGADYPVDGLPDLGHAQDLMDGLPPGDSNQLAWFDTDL

CHI Log D procedure = format: physicochemical; conditions: for CHI Log D: pH 7.4
[2] = fluorescence polarization, beta-catenin, read-out: FP EC50

Structure (SMILES) | Solubility (Solubility in PBS; Solubility (uM)) [µM] | IC50 ([1]; read-out: beta-Catenin FP IC50) [nM] | chromatographic logD (CHI Log D procedure; pH 7.4, CHI Log D) | Solubility (Solubility in PBS) [µM] | IC50 [1, 2] [nM] | CHI Log D (CHI Log D procedure)
CC(=O)N1CCC[C@]12CC=CCCCC1(CCCC=CCCCOC(=O)N3CC[C@@](C(=O)N[C@@H](Cc4ccsc4)C(=O)N[C@@H](Cc4csc5ccccc45)C(=O)N[C@@H](CCC(N)=O)C(=O)N[C@@H](CCCCNC(=O)c4cccc5ccccc45)C(N)=O)(C3)NC(=O)[C@H](CC(N)=O)NC(=O)[C@H](Cc3ccccc3)NC(=O)[C@H](C)NC(=O)[C@H](C)NC(=O)[C@H](CC(=O)O)NC(=O)[C@H](CC(=O)O)NC1=O)NC(=O)[C@H](CC(C)(C)C)NC(=O)[C@H](CC(=O)O)NC2=O (stereo partly drawn) [I-916, Ac-PL3-Asp-Npg-B5-Asp-Asp-Ala-Ala-Phe-Asn-PyrS2-3Thi-BztA-Gln-[1Napc]Lys-NH2] | 45 (≈ 99 µg/mL) | 28 | 2.33 | – | – | –
CC(=O)N1CCC[C@]12CC=CCCCC1(CCCC=CCCCOC(=O)N3CC[C@@](C(=O)N[C@@H](Cc4ccsc4)C(=O)N[C@@H](Cc4csc5ccccc45)C(=O)N[C@@H](CO)C(N)=O)(C3)NC(=O)[C@H](CC(N)=O)NC(=O)[C@H](Cc3ccccc3)NC(=O)[C@H](C)NC(=O)[C@H](C)NC(=O)[C@H](CN(CC(=O)O)CC(F)(F)F)NC(=O)[C@H](CC(=O)O)NC1=O)NC(=O)[C@H](CC(C)(C)C)NC(=O)[C@H](CC(=O)O)NC2=O (stereo partly drawn) [I-940, Ac-PL3-Asp-Npg-B5-Asp-TfeGA-Ala-Ala-Phe-Asn-PyrS2-3Thi-BztA-Ser-NH2] | – | 1740 | – | 45 (≈ 89.5 µg/mL) | 1740 | 2.055
CC(=O)N1CCC[C@]12CC=CCCCC1(CCCC=CCCCOC(=O)N3CC[C@@](C(=O)N[C@@H](Cc4ccsc4)C(=O)N[C@@H](Cc4csc5ccccc45)C(=O)N[C@@H](CO)C(N)=O)(C3)NC(=O)[C@H](CC(N)=O)NC(=O)[C@H](Cc3ccccc3)NC(=O)[C@H](C)NC(=O)[C@H](C)NC(=O)[C@H](CN(CC(=O)O)CC(F)(F)F)NC(=O)[C@H](CC(=O)O)NC1=O)NC(=O)[C@H](CC(C)(C)C)NC(=O)[C@H](CC(=O)O)NC2=O (stereo partly drawn) [I-941, Ac-PL3-Asp-Npg-B5-Asp-TfeGA-Ala-Ala-Phe-Asn-PyrS2-3Thi-BztA-Ser-NH2] | – | 2110 | – | 46 (≈ 91.5 µg/mL) | 2110 | 2.011
CC(=O)N1CCC[C@]12CC=CCCCC1(CCCC=CCCCOC(=O)N3CC[C@@](C(=O)N[C@@H](Cc4ccsc4)C(=O)N[C@@H](Cc4csc5ccccc45)C(=O)N[C@H](C(N)=O)[C@@H](C)O)(C3)NC(=O)[C@H](CC(N)=O)NC(=O)[C@H](Cc3ccccc3)NC(=O)[C@H](C)NC(=O)[C@H](C)NC(=O)[C@H](CN(CC(=O)O)CC(F)(F)F)NC(=O)[C@H](CC(=O)O)NC1=O)NC(=O)[C@H](CC(C)(C)C)NC(=O)[C@H](CC(=O)O)NC2=O (stereo partly drawn) [I-942, Ac-PL3-Asp-Npg-B5-Asp-TfeGA-Ala-Ala-Phe-Asn-PyrS2-3Thi-BztA-Thr-NH2] | – | 1280 | – | 46 (≈ 92.1 µg/mL) | 1280 | 1.984
CC(=O)N1CCC[C@]12CC=CCCCC1(CCCC=CCCCOC(=O)N3CC[C@@](C(=O)N[C@@H](Cc4ccsc4)C(=O)N[C@@H](Cc4csc5ccccc45)C(=O)N[C@H](C(N)=O)[C@@H](C)O)(C3)NC(=O)[C@H](CC(N)=O)NC(=O)[C@H](Cc3ccccc3)NC(=O)[C@H](C)NC(=O)[C@H](C)NC(=O)[C@H](CN(CC(=O)O)CC(F)(F)F)NC(=O)[C@H](CC(=O)O)NC1=O)NC(=O)[C@H](CC(C)(C)C)NC(=O)[C@H](CC(=O)O)NC2=O (stereo partly drawn) [I-943, Ac-PL3-Asp-Npg-B5-Asp-TfeGA-Ala-Ala-Phe-Asn-PyrS2-3Thi-BztA-Thr-NH2] | – | 1990 | – | 49 (≈ 98.1 µg/mL) | 1990 | 2.071
CC(=O)N1CCC[C@]12CC=CCCCC1(CCCC=CCCCOC(=O)N3CC[C@@](C(=O)N[C@@H](Cc4ccsc4)C(=O)N[C@@H](Cc4csc5ccccc45)C(=O)N[C@@H](CC(C)C)C(N)=O)(C3)NC(=O)[C@H](CC(N)=O)NC(=O)[C@H](Cc3ccccc3)NC(=O)[C@H](C)NC(=O)[C@H](C)NC(=O)[C@H](CN(CC(=O)O)CC(F)(F)F)NC(=O)[C@H](CC(=O)O)NC1=O)NC(=O)[C@H](CC(C)(C)C)NC(=O)[C@H](CC(=O)O)NC2=O (stereo partly drawn) [I-946, Ac-PL3-Asp-Npg-B5-Asp-TfeGA-Ala-Ala-Phe-Asn-PyrS2-3Thi-BztA-Leu-NH2] | – | 798 | – | 47 (≈ 94.7 µg/mL) | 798 | 2.209
CC(=O)N1CCC[C@]12CC=CCCCC1(CCCC=CCCCOC(=O)N3CC[C@@](C(=O)N[C@@H](Cc4ccsc4)C(=O)N[C@@H](Cc4csc5ccccc45)C(=O)N[C@@H](CC(C)C)C(N)=O)(C3)NC(=O)[C@H](CC(N)=O)NC(=O)[C@H](Cc3ccccc3)NC(=O)[C@H](C)NC(=O)[C@H](C)NC(=O)[C@H](CN(CC(=O)O)CC(F)(F)F)NC(=O)[C@H](CC(=O)O)NC1=O)NC(=O)[C@H](CC(C)(C)C)NC(=O)[C@H](CC(=O)O)NC2=O (stereo partly drawn) [I-947, Ac-PL3-Asp-Npg-B5-Asp-TfeGA-Ala-Ala-Phe-Asn-PyrS2-3Thi-BztA-Leu-NH2] | – | 1050 | – | 47 (≈ 94.7 µg/mL) | 1050 | 2.271
CC(=O)N1CCC[C@]12CC=CCCCC1(CCCC=CCCCOC(=O)N3CC[C@@](C(=O)N[C@@H](Cc4ccsc4)C(=O)N[C@@H](Cc4csc5ccccc45)C(=O)N[C@@H](C(N)=O)[C@H](C)O)(C3)NC(=O)[C@H](CC(N)=O)NC(=O)[C@H](Cc3ccccc3)NC(=O)[C@H](C)NC(=O)[C@H](C)NC(=O)[C@H](CN(CC(=O)O)CC(F)(F)F)NC(=O)[C@H](CC(=O)O)NC1=O)NC(=O)[C@H](CC(C)(C)C)NC(=O)[C@H](CC(=O)O)NC2=O (stereo partly drawn) [I-948, Ac-PL3-Asp-Npg-B5-Asp-TfeGA-Ala-Ala-Phe-Asn-PyrS2-3Thi-BztA-dThr-NH2] | – | 2430 | – | 47 (≈ 94.1 µg/mL) | 2430 | 2.013
CC(=O)N1CCC[C@]12CC=CCCCC1(CCCC=CCCCOC(=O)N3CC[C@@](C(=O)N[C@@H](Cc4ccsc4)C(=O)N[C@@H](Cc4csc5ccccc45)C(=O)N[C@@H](C(N)=O)[C@H](C)O)(C3)NC(=O)[C@H](CC(N)=O)NC(=O)[C@H](Cc3ccccc3)NC(=O)[C@H](C)NC(=O)[C@H](C)NC(=O)[C@H](CN(CC(=O)O)CC(F)(F)F)NC(=O)[C@H](CC(=O)O)NC1=O)NC(=O)[C@H](CC(C)(C)C)NC(=O)[C@H](CC(=O)O)NC2=O (stereo partly drawn) [I-949, Ac-PL3-Asp-Npg-B5-Asp-TfeGA-Ala-Ala-Phe-Asn-PyrS2-3Thi-BztA-dThr-NH2] | – | 2260 | – | 49 (≈ 98.1 µg/mL) | 2260 | 2.086
CC(=O)N1CCC[C@]12CC=CCCCC1(CCCC=CCCCOC(=O)N3CC[C@@](C(=O)N[C@@H](Cc4ccsc4)C(=O)N[C@@H](Cc4csc5ccccc45)C(=O)N[C@@H](CCO)C(N)=O)(C3)NC(=O)[C@H](CC(N)=O)NC(=O)[C@H](Cc3ccccc3)NC(=O)[C@H](C)NC(=O)[C@H](C)NC(=O)[C@H](CN(CC(=O)O)CC(F)(F)F)NC(=O)[C@H](CC(=O)O)NC1=O)NC(=O)[C@H](CC(C)(C)C)NC(=O)[C@H](CC(=O)O)NC2=O (stereo partly drawn) [I-950, Ac-PL3-Asp-Npg-B5-Asp-TfeGA-Ala-Ala-Phe-Asn-PyrS2-3Thi-BztA-Hse-NH2] | – | 1630 | – | 46 (≈ 92.1 µg/mL) | 1630 | 1.9
CC(=O)N1CCC[C@]12CC=CCCCC1(CCCC=CCCCOC(=O)N3CC[C@@](C(=O)N[C@@H](Cc4ccsc4)C(=O)N[C@@H](Cc4csc5ccccc45)C(=O)N[C@@H](CCO)C(N)=O)(C3)NC(=O)[C@H](CC(N)=O)NC(=O)[C@H](Cc3ccccc3)NC(=O)[C@H](C)NC(=O)[C@H](C)NC(=O)[C@H](CN(CC(=O)O)CC(F)(F)F)NC(=O)[C@H](CC(=O)O)NC1=O)NC(=O)[C@H](CC(C)(C)C)NC(=O)[C@H](CC(=O)O)NC2=O (stereo partly drawn) [I-951, Ac-PL3-Asp-Npg-B5-Asp-TfeGA-Ala-Ala-Phe-Asn-PyrS2-3Thi-BztA-Hse-NH2] | – | 1470 | – | 47 (≈ 94.1 µg/mL) | 1470 | 1.971
CC(=O)N1CCC[C@]12CC=CCCCC1(CCCC=CCCCOC(=O)N3CC[C@@](C(=O)N[C@@H](Cc4ccsc4)C(=O)N[C@@H](Cc4csc5ccccc45)C(=O)N[C@@H](Cc4ccc(O)cc4)C(N)=O)(C3)NC(=O)[C@H](CC(N)=O)NC(=O)[C@H](Cc3ccccc3)NC(=O)[C@H](C)NC(=O)[C@H](C)NC(=O)[C@H](CN(CC(=O)O)CC(F)(F)F)NC(=O)[C@H](CC(=O)O)NC1=O)NC(=O)[C@H](CC(C)(C)C)NC(=O)[C@H](CC(=O)O)NC2=O (stereo partly drawn) [I-953, Ac-PL3-Asp-Npg-B5-Asp-TfeGA-Ala-Ala-Phe-Asn-PyrS2-3Thi-BztA-Tyr-NH2] | – | 1460 | – | 47 (≈ 97 µg/mL) | 1460 | 2.04
